What was measured:
Assay in all cases: Bliss interaction score (quartile over a dose matrix) (fitness difference); higher = more antagonism (negative = synergy)
[1] = tested on: S. aureus DSM 20231
Procedure, shortened: (§1)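 Fitness was derived from optical density at entry into stationary phase, divided by the robust mean of the no-drug wells on the same plate. That reading was taken as OD595, and the ratio was capped at 1. Single-drug fitness was inferred from the combination data. The Bliss score, observed fitness minus the expected product of single-drug fitness, was summarised as quartiles over technical, biological and donor/recipient replicates.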

[2] = tested on: B. subtilis 168
Procedure, shortened: as §1

[3] = tested on: S. aureus Newman
Procedure, shortened: as §1

[4] = tested on: S. pneumoniae D39V
Procedure, shortened: as §1
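Also: first quartile when negative (synergy) and third quartile when positive (antagonism).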

SMILES | Bliss interaction score [1] | Bliss interaction score [2] | Bliss interaction score [3] | Bliss interaction score [4] | Bliss interaction score ([1]; main component drawn) | Bliss interaction score ([2]; main component drawn) | Bliss interaction score ([3]; main component drawn) | Bliss interaction score ([4]; main component drawn)
CC(=O)OC[C@H]1O[C@@H]([S-])[C@H](OC(C)=O)[C@@H](OC(C)=O)[C@@H]1OC(C)=O.CCP(CC)CC.[Au+] [Auranofin] + CC(=O)O[C@H]1C[C@@]2(C)[C@@H](C[C@@H](O)[C@H]3[C@@]4(C)CC[C@@H](O)[C@@H](C)[C@@H]4CC[C@@]32C)/C1=C(\CCC=C(C)C)C(=O)O [Fusidic acid] | 0.019 | 0.0389 | 0.0311 | -0.0761 |  |  |  | 
CC(=O)OC[C@H]1O[C@@H]([S-])[C@H](OC(C)=O)[C@@H](OC(C)=O)[C@@H]1OC(C)=O.CCP(CC)CC.[Au+] [Auranofin] + CC(C1CCC(C(O1)OC2C(CC(C(C2O)OC3C(C(C(CO3)(C)O)NC)O)N)N)N)NC [Gentamicin] |  |  |  |  | 0.0359 | -0.0544 | 0.0898 | -0.0834
CC(=O)OC[C@H]1O[C@@H]([S-])[C@H](OC(C)=O)[C@@H](OC(C)=O)[C@@H]1OC(C)=O.CCP(CC)CC.[Au+] [Auranofin] + CCC(C)C1C(=O)NC(=C)C(=O)NC(C(=O)NC(CSCC(C(=O)N1)NC(=O)/C(=C/C)/NC(=O)C(C(C)CC)N)C(=O)NC2C(SCC(NC(=O)CNC(=O)C3CCCN3C2=O)C(=O)NC(CCCCN)C(=O)NC4C(SCC(NC(=O)CNC(=O)C(NC(=O)C(NC(=O)C(NC(=O)CNC4=O)C)CC(C)C)CCSC)C(=O)NC(CC(=O)N)C(=O)NC(CCSC)C(=O)NC(CCCCN)C(=O)NC5C(SCC6C(=O)NC(C(=O)NC(CSC(C(C(=O)N6)NC(=O)C(NC5=O)C)C)C(=O)NC(CO)C(=O)NC(C(C)CC)C(=O)NC(CC7=CN=CN7)C(=O)NC(C(C)C)C(=O)NC(=C)C(=O)NC(CCCCN)C(=O)O)CC8=CN=CN8)C)C)C)CC(C)C [Nisin] |  |  |  |  | -0.0361 | -0.0321 | 0.0274 | -0.0798
CC(=O)OC[C@H]1O[C@@H]([S-])[C@H](OC(C)=O)[C@@H](OC(C)=O)[C@@H]1OC(C)=O.CCP(CC)CC.[Au+] [Auranofin] + CCCCCCCCCC(=O)N[C@@H]1[C@H]([C@@H]([C@H](O[C@H]1OC2=C3C=C4C=C2OC5=C(C=C(C=C5)[C@H]([C@H]6C(=O)N[C@@H](C7=C(C(=CC(=C7)O)OC8[C@H]([C@H]([C@@H]([C@H](O8)CO)O)O)O)C9=C(C=CC(=C9)[C@H](C(=O)N6)NC(=O)[C@@H]4NC(=O)[C@@H]1C2=CC(=CC(=C2)OC2=C(C=CC(=C2)[C@H](C(=O)N[C@H](CC2=CC(=C(O3)C=C2)Cl)C(=O)N1)N)O)O)O)C(=O)O)O[C@H]1[C@@H]([C@H]([C@@H]([C@H](O1)CO)O)O)NC(=O)C)Cl)CO)O)O [Teicoplanin] |  |  |  |  | 0.0469 | -0.0433 | 0.0303 | 0.0761
CC(=O)OC[C@H]1O[C@@H]([S-])[C@H](OC(C)=O)[C@@H](OC(C)=O)[C@@H]1OC(C)=O.CCP(CC)CC.[Au+] [Auranofin] + CCC[C@@H]1C[C@@H](C(=O)N[C@@H]([C@H]2O[C@H](SC)[C@H](O)[C@@H](O)[C@H]2O)[C@@H](C)O)N(C)C1 [Lincomycin] | 0.0235 | 0.066 | 0.0853 | -0.0496 |  |  |  | 
CC(=O)OC[C@H]1O[C@@H]([S-])[C@H](OC(C)=O)[C@@H](OC(C)=O)[C@@H]1OC(C)=O.CCP(CC)CC.[Au+] [Auranofin] + CCC[C@@H]1C[C@@H](C(=O)N[C@@H]([C@H]2O[C@H](SC)[C@H](O)[C@@H](O)[C@H]2O)[C@H](C)Cl)N(C)C1 [Clindamycin] | 0.0307 | 0.0424 | 0.0741 | 0.0341 |  |  |  | 
CC(=O)OC[C@H]1O[C@@H]([S-])[C@H](OC(C)=O)[C@@H](OC(C)=O)[C@@H]1OC(C)=O.CCP(CC)CC.[Au+] [Auranofin] + CCN(CC)CCOC(=O)c1ccc(N)cc1 [Procaine] | -0.0516 | -0.0372 | -0.0631 | -0.0391 |  |  |  | 
CC(=O)OC[C@H]1O[C@@H]([S-])[C@H](OC(C)=O)[C@@H](OC(C)=O)[C@@H]1OC(C)=O.CCP(CC)CC.[Au+] [Auranofin] + CC[C@H]1OC(=O)[C@H](C)C(=O)[C@H](C)[C@@H](O[C@@H]2O[C@H](C)C[C@H](N(C)C)[C@H]2O)[C@](C)(OC)C[C@@H](C)C(=O)[C@H](C)[C@H]2N(CCCCn3cnc(-c4cccnc4)c3)C(=O)O[C@]12C [Telithromycin] | 0.0187 | -0.0304 | 0.0309 | 0.0324 |  |  |  | 
CC(=O)OC[C@H]1O[C@@H]([S-])[C@H](OC(C)=O)[C@@H](OC(C)=O)[C@@H]1OC(C)=O.CCP(CC)CC.[Au+] [Auranofin] + CC[C@H]1OC(=O)[C@H](C)[C@@H](O[C@H]2C[C@@](C)(OC)[C@@H](O)[C@H](C)O2)[C@H](C)[C@@H](O[C@@H]2O[C@H](C)C[C@H](N(C)C)[C@H]2O)[C@](C)(O)C[C@@H](C)C(=O)[C@H](C)[C@@H](O)[C@]1(C)O [Erythromycin] | 0.0169 | 0.0564 | 0.0459 | 0.0643 |  |  |  | 
CC(=O)OC[C@H]1O[C@@H]([S-])[C@H](OC(C)=O)[C@@H](OC(C)=O)[C@@H]1OC(C)=O.CCP(CC)CC.[Au+] [Auranofin] + CC[C@H]1OC(=O)[C@H](C)[C@@H](O[C@H]2C[C@@](C)(OC)[C@@H](O)[C@H](C)O2)[C@H](C)[C@@H](O[C@@H]2O[C@H](C)C[C@H](N(C)C)[C@H]2O)[C@](C)(O)C[C@@H](C)CN(C)[C@H](C)[C@@H](O)[C@]1(C)O [Azithromycin] | 0.0282 | 0.0589 | 0.137 | -0.038 |  |  |  | 
CC(=O)OC[C@H]1O[C@@H]([S-])[C@H](OC(C)=O)[C@@H](OC(C)=O)[C@@H]1OC(C)=O.CCP(CC)CC.[Au+] [Auranofin] + CC[C@H]1OC(=O)[C@H](C)[C@@H](O[C@H]2C[C@@](C)(OC)[C@@H](O)[C@H](C)O2)[C@H](C)[C@@H](O[C@@H]2O[C@H](C)C[C@H](N(C)C)[C@H]2O)[C@](C)(OC)C[C@@H](C)C(=O)[C@H](C)[C@@H](O)[C@]1(C)O [Clarithromycin] | 0.0219 | 0.0346 | 0.0636 | 0.039 |  |  |  | 
CC(=O)OC[C@H]1O[C@@H]([S-])[C@H](OC(C)=O)[C@@H](OC(C)=O)[C@@H]1OC(C)=O.CCP(CC)CC.[Au+] [Auranofin] + CC[C@H](C)[C@H](N)C1=N[C@H](C(=O)N[C@@H](CC(C)C)C(=O)N[C@H](CCC(=O)O)C(=O)N[C@H](C(=O)N[C@H]2CCCCNC(=O)[C@H](CC(N)=O)NC(=O)[C@@H](CC(=O)O)NC(=O)[C@H](Cc3cnc[nH]3)NC(=O)[C@@H](Cc3ccccc3)NC(=O)[C@H]([C@@H](C)CC)NC(=O)[C@@H](CCCN)NC2=O)[C@@H](C)CC)CS1 [Bacitracin] |  |  |  |  | 0.0174 | 0.165 | 0.133 | -0.0398
CC(=O)OC[C@H]1O[C@@H]([S-])[C@H](OC(C)=O)[C@@H](OC(C)=O)[C@@H]1OC(C)=O.CCP(CC)CC.[Au+] [Auranofin] + CN1C2=CC=CC=C2N=C3C1=CC=CC3=O [Pyocyanin] | 0.0747 | -0.0273 | -0.158 | 0.0818 |  |  |  | 
CC(=O)OC[C@H]1O[C@@H]([S-])[C@H](OC(C)=O)[C@@H](OC(C)=O)[C@@H]1OC(C)=O.CCP(CC)CC.[Au+] [Auranofin] + CN(C)C(=O)C(CCN1CCC(O)(c2ccc(Cl)cc2)CC1)(c1ccccc1)c1ccccc1 [Loperamide] | 0.0252 | 0.0417 | 0.113 | 0.116 |  |  |  | 
CC(=O)OC[C@H]1O[C@@H]([S-])[C@H](OC(C)=O)[C@@H](OC(C)=O)[C@@H]1OC(C)=O.CCP(CC)CC.[Au+] [Auranofin] + CN(C)[C@@H]1C(O)=C(C(N)=O)C(=O)[C@@]2(O)C(O)=C3C(=O)c4c(O)ccc(Cl)c4[C@@](C)(O)[C@H]3C[C@@H]12 [Clortetracycline] | 0.0317 | 0.0659 | 0.0623 | 0.0541 |  |  |  | 
CC(=O)OC[C@H]1O[C@@H]([S-])[C@H](OC(C)=O)[C@@H](OC(C)=O)[C@@H]1OC(C)=O.CCP(CC)CC.[Au+] [Auranofin] + CN(C)c1cc(NC(=O)CNC(C)(C)C)c(O)c2c1C[C@H]1C[C@H]3[C@H](N(C)C)C(O)=C(C(N)=O)C(=O)[C@@]3(O)C(O)=C1C2=O [Tigecycline] | -0.0332 | 0.0508 | -0.066 | 0.0966 |  |  |  | 
CC(=O)OC[C@H]1O[C@@H]([S-])[C@H](OC(C)=O)[C@@H](OC(C)=O)[C@@H]1OC(C)=O.CCP(CC)CC.[Au+] [Auranofin] + CN(N=O)C(=O)N[C@@H](C=O)[C@@H](O)[C@H](O)[C@H](O)CO [Streptozotocin] | -0.0317 | 0.0355 | 0.0723 | 0.105 |  |  |  | 
CC(=O)OC[C@H]1O[C@@H]([S-])[C@H](OC(C)=O)[C@@H](OC(C)=O)[C@@H]1OC(C)=O.CCP(CC)CC.[Au+] [Auranofin] + CN[C@@H]1[C@H](O)[C@H](NC)[C@H]2O[C@@]3(O)C(=O)C[C@@H](C)O[C@H]3O[C@@H]2[C@H]1O [Spectinomycin] | 0.0611 | 0.0604 | 0.0532 | -0.162 |  |  |  | 
CC(=O)OC[C@H]1O[C@@H]([S-])[C@H](OC(C)=O)[C@@H](OC(C)=O)[C@@H]1OC(C)=O.CCP(CC)CC.[Au+] [Auranofin] + CN[C@@H]1[C@H](O[C@H]2[C@H](O[C@H]3[C@H](O)[C@@H](O)[C@H](N=C(N)N)[C@@H](O)[C@@H]3N=C(N)N)O[C@@H](C)[C@]2(O)C=O)O[C@@H](CO)[C@H](O)[C@H]1O [Streptomycin] | -0.0362 | 0.0215 | -0.0862 | -0.163 |  |  |  | 
CC(=O)OC[C@H]1O[C@@H]([S-])[C@H](OC(C)=O)[C@@H](OC(C)=O)[C@@H]1OC(C)=O.CCP(CC)CC.[Au+] [Auranofin] + CN[C@H](CC(C)C)C(=O)N[C@H]1C(=O)N[C@@H](CC(N)=O)C(=O)N[C@H]2C(=O)N[C@H]3C(=O)N[C@H](C(=O)N[C@H](C(=O)O)c4cc(O)cc(O)c4-c4cc3ccc4O)[C@H](O)c3ccc(c(Cl)c3)Oc3cc2cc(c3O[C@@H]2O[C@H](CO)[C@@H](O)[C@H](O)[C@H]2O[C@H]2C[C@](C)(N)[C@H](O)[C@H](C)O2)Oc2ccc(cc2Cl)[C@H]1O [Vancomycin] | -0.0311 | 0.0381 | 0.0325 | 0.0929 |  |  |  | 
CC(=O)OC[C@H]1O[C@@H]([S-])[C@H](OC(C)=O)[C@@H](OC(C)=O)[C@@H]1OC(C)=O.CCP(CC)CC.[Au+] [Auranofin] + CN[C@H](CC(C)C)C(=O)N[C@H]1C(=O)N[C@@H](CC(N)=O)C(=O)N[C@H]2C(=O)N[C@H]3C(=O)N[C@H](C(=O)N[C@H](C(=O)O)c4cc(O)cc(O)c4-c4cc3ccc4O)[C@H](O[C@H]3C[C@](C)(N)[C@@H](O)[C@H](C)O3)c3ccc(c(Cl)c3)Oc3cc2cc(c3O[C@@H]2O[C@H](CO)[C@@H](O)[C@H](O)[C@H]2O[C@H]2C[C@](C)(NCc3ccc(-c4ccc(Cl)cc4)cc3)[C@@H](O)[C@H](C)O2)Oc2ccc(cc2Cl)[C@H]1O [Oritavancin] | 0.0219 | 0.0311 | 0.0771 | 0.0463 |  |  |  | 
CC(=O)OC[C@H]1O[C@@H]([S-])[C@H](OC(C)=O)[C@@H](OC(C)=O)[C@@H]1OC(C)=O.CCP(CC)CC.[Au+] [Auranofin] + CO/N=C(\C(=O)N[C@@H]1C(=O)N2C(C(=O)O)=C(COC(C)=O)CS[C@H]12)c1csc(N)n1 [Cefotaxime] | 0.0539 | -0.0473 | 0.0713 | 0.0687 |  |  |  | 
CC(=O)OC[C@H]1O[C@@H]([S-])[C@H](OC(C)=O)[C@@H](OC(C)=O)[C@@H]1OC(C)=O.CCP(CC)CC.[Au+] [Auranofin] + CO/N=C(\C(=O)N[C@@H]1C(=O)N2C(C(=O)O)=C(COC(N)=O)CS[C@H]12)c1ccco1 [Cefuroxime] | -0.239 | -0.0911 | 0.0517 | 0.0434 |  |  |  | 

Reference: the supplement of paper PMC10627819
